Laboratory results taken from ChEMBL document CHEMBL5053510, “Discovery of AS-1763: A Potent, Selective, Noncovalent, and Orally Available Inhibitor of Bruton's Tyrosine Kinase” (J Med Chem, 2021).
Activity calls are given as the source filed them. No cut-off for these calls is given here.

Legend:
Cytochrome P450 2C8 = Cytochrome P450 2C8 (Homo sapiens, UniProt P10632); test: Inhibition of CYP2C8 (unknown origin); type: ADME
Cytochrome P450 2C9 = Cytochrome P450 2C9 (Homo sapiens, UniProt P11712); test: Inhibition of CYP2C9 (unknown origin); type: ADME
Sequence of Cytochrome P450 2C9 (P11712 whole entry): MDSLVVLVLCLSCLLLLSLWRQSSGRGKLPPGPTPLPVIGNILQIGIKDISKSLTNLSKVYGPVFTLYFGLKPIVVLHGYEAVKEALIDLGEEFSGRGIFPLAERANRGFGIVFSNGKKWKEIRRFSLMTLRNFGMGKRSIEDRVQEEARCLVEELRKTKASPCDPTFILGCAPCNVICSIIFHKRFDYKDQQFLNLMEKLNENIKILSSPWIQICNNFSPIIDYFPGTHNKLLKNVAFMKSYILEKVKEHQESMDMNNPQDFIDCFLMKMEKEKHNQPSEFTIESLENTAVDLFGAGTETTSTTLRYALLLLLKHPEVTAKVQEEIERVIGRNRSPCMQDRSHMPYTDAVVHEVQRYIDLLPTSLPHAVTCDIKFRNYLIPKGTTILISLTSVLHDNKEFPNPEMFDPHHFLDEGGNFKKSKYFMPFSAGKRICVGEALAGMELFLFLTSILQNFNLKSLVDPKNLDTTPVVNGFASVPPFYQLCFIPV

[1] = biological target: Voltage-gated inwardly rectifying potassium channel KCNH2 (Homo sapiens, UniProt Q12809); test: Inhibition of human ERG
Sequence of Voltage-gated inwardly rectifying potassium channel KCNH2 (Q12809 whole entry): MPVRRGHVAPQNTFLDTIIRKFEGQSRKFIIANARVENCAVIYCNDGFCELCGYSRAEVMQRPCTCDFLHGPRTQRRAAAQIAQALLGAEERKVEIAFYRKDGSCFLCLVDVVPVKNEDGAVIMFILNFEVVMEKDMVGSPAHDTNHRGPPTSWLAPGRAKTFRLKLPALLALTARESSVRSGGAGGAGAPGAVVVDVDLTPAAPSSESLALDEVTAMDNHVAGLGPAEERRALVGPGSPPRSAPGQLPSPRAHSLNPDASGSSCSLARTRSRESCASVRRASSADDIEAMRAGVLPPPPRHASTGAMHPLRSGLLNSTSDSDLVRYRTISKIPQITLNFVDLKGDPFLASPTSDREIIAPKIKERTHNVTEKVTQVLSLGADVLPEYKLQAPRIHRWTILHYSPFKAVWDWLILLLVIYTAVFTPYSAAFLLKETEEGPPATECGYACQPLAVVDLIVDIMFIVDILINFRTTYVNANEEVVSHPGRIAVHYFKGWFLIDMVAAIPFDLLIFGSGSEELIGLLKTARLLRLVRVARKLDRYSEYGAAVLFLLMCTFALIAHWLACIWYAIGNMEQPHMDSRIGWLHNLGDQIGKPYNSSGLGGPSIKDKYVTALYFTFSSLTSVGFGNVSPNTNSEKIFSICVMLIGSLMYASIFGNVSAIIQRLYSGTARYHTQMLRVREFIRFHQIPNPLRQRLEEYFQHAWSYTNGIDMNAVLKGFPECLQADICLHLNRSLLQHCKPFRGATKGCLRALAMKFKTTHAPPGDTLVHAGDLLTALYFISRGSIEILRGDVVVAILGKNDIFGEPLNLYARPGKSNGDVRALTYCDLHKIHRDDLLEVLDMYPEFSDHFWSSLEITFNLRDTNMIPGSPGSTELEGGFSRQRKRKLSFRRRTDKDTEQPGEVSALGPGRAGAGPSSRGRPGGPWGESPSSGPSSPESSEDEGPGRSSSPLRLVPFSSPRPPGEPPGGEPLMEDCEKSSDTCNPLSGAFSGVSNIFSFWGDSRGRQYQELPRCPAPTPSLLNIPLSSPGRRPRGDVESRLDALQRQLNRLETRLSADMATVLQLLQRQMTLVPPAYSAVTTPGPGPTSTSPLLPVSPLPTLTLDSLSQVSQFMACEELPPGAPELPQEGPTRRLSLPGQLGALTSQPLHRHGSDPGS

[2] = Half life in mouse at 15 mg/kg, po; type: ADME, organism-based; settings: in vivo
[3] = Half life in rat at 15 mg/kg, po; type: ADME, organism-based; settings: in vivo
[4] = Half life in dog at 5 mg/kg, po; type: ADME, organism-based, Canis lupus familiaris; settings: in vivo
[5] = Half life in mouse at 2 mg/kg, iv; type: ADME, organism-based; settings: in vivo
[6] = Half life in rat at 2 mg/kg, iv; type: ADME, organism-based; settings: in vivo
[7] = Half life in dog at 1 mg/kg, iv; type: ADME, organism-based, Canis lupus familiaris; settings: in vivo
[8] = Tmax in mouse at 15 mg/kg, po; type: ADME, organism-based; settings: in vivo
[9] = Tmax in rat at 15 mg/kg, po; type: ADME, organism-based; settings: in vivo
[10] = Tmax in dog at 5 mg/kg, po; type: ADME, organism-based, Canis lupus familiaris; settings: in vivo
[11] = Initial plasma concentration in mouse at 2 mg/kg, iv; type: ADME, organism-based
[12] = Initial plasma concentration in mouse at 15 mg/kg, po; type: ADME, organism-based; settings: in vivo
[13] = Initial plasma concentration in rat at 2 mg/kg, iv; type: ADME, organism-based
[14] = Initial plasma concentration in rat at 15 mg/kg, po; type: ADME, organism-based; settings: in vivo
[15] = Initial plasma concentration in dog at 1 mg/kg, iv; type: ADME, organism-based, Canis lupus familiaris
[16] = Initial plasma concentration in dog at 5 mg/kg, po; type: ADME, organism-based, Canis lupus familiaris; settings: in vivo
[17] = AUC (0 to last) in mouse at 2 mg/kg, iv; type: ADME, organism-based; parameters: time 0 - last, dose 2 mg/kg, route iv; settings: in vivo
[18] = AUC (0 to last) in mouse at 15 mg/kg, po; type: ADME, organism-based; parameters: time 0 - last, dose 15 mg/kg, route po; settings: in vivo
[19] = AUC (0 to last) in rat at 2 mg/kg, iv; type: ADME, organism-based; parameters: time 0 - last, dose 2 mg/kg, route iv; settings: in vivo
[20] = AUC (0 to last) in rat at 15 mg/kg, po; type: ADME, organism-based; parameters: time 0 - last, dose 15 mg/kg, route po; settings: in vivo
[21] = AUC (0 to last) in dog at 1 mg/kg, iv; type: ADME, organism-based, Canis lupus familiaris; parameters: time 0 - last, dose 1 mg/kg, route iv; settings: in vivo
[22] = AUC (0 to last) in dog at 5 mg/kg, po; type: ADME, organism-based, Canis lupus familiaris; parameters: time 0 - last, dose 5 mg/kg, route po; settings: in vivo
[23] = Volume of distribution at steady state in mouse at 2 mg/kg, iv; type: ADME, organism-based; settings: in vivo, read-out: Vdss
[24] = Volume of distribution in steady state rat at 2 mg/kg, iv; type: ADME, organism-based; settings: in vivo, read-out: Vdss
[25] = Volume of distribution at steady state in dog at 2 mg/kg, iv; type: ADME, organism-based, Canis lupus familiaris; settings: in vivo, read-out: Vdss
[26] = Clearence in mouse at 2 mg/kg, iv; type: ADME, organism-based; settings: in vivo
[27] = Clearence in rat at 2 mg/kg, iv; type: ADME, organism-based; settings: in vivo
[28] = Clearence in dog at 1 mg/kg, iv; type: ADME, organism-based, Canis lupus familiaris; settings: in vivo
[29] = Oral bioavailability in mouse at 15 mg/kg; type: ADME, organism-based; settings: in vivo
[30] = Oral bioavailability in rat at 15 mg/kg; type: ADME, organism-based; settings: in vivo
[31] = Oral bioavailability in dog at 5 mg/kg; type: ADME, organism-based, Canis lupus familiaris; settings: in vivo
OCI-Ly10 [32] = test: Antitumor activity against human OCILY10 cells xenografted in SCID mouse assessed as tumor growth inhibition at 6 mg/kg, po bid measured after 63 days; type: functional; settings: OCI-Ly10, 1512 h, time 63 day, read-out: TGI
OCI-Ly10 [33] = test: Antitumor activity against human OCILY10 cells xenografted in SCID mouse assessed as tumor growth inhibition at 20 mg/kg, po bid measured after 63 days; type: functional; settings: OCI-Ly10, 1512 h, time 63 day, read-out: TGI
OCI-Ly10 [34] = test: Antitumor activity against human OCILY10 cells in SCID mouse assessed as tumor growth inhibition at 60 mg/kg, po bid measured after 63 days; type: functional; settings: OCI-Ly10, 1512 h, time 63 day, read-out: TGI
OCI-Ly10 [35] = test: Antitumor activity against human ibrutinib-resistant BTK[C481S] knock-in OCILY10 cells in SCID mouse assessed as tumor growth inhibition at 60 mg/kg, po bid measured after 63 days; type: functional; settings: OCI-Ly10, 1512 h, time 63 day, read-out: TGI
Mus musculus = species: Mus musculus; test: Toxicity in SCID mouse harboring human OCILY10 cells harboring BTK C481S mutant […] gene assessed as body weight loss; type: organism-based
[36] = biological target: Tyrosine-protein kinase BTK (Mus musculus) (UniProt P35991); test: Inhibition of BTK in […] mouse blood assessed as reduction in BTK phosphorylation at Tyr223 residue at 15 mg/kg, po measured after 8 hrs; type: organism-based
Sequence of Tyrosine-protein kinase BTK (Mus musculus) (P35991 whole entry): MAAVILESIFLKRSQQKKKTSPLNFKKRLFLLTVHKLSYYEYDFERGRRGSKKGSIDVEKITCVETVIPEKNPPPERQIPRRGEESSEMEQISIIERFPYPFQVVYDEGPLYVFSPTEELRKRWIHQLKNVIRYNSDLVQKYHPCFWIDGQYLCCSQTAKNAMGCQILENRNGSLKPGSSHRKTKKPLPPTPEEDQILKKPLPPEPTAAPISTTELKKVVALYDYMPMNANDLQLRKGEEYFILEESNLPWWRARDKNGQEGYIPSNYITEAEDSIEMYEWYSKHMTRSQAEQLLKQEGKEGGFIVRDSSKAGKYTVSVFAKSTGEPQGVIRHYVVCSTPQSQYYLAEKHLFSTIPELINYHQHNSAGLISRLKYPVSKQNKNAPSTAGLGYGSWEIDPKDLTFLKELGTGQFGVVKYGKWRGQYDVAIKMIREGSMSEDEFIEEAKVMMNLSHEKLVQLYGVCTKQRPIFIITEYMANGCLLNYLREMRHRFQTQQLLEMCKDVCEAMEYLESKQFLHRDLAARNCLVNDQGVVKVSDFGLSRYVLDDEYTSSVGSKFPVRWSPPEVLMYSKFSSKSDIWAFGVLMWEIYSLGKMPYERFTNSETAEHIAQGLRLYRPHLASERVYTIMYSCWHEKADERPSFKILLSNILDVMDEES

[37] = biological target: Tyrosine-protein kinase BTK (Mus musculus) (UniProt P35991); test: Inhibition of BTK in […] mouse blood assessed as reduction in BTK phosphorylation at Tyr223 residue at 30 mg/kg, po measured after 8 hrs; type: organism-based
[38] = biological target: Tyrosine-protein kinase BTK (Mus musculus) (UniProt P35991); test: In vivo inhibition of autophosphorylation of BTK at Y223 in mouse at 7.5 to 30 mg/kg, po measured up to 8 hrs by Western blot analysis; type: functional, organism-based; settings: dose 7.5-30 mg/kg

Sequence of Cytochrome P450 2C8 (P10632 whole entry): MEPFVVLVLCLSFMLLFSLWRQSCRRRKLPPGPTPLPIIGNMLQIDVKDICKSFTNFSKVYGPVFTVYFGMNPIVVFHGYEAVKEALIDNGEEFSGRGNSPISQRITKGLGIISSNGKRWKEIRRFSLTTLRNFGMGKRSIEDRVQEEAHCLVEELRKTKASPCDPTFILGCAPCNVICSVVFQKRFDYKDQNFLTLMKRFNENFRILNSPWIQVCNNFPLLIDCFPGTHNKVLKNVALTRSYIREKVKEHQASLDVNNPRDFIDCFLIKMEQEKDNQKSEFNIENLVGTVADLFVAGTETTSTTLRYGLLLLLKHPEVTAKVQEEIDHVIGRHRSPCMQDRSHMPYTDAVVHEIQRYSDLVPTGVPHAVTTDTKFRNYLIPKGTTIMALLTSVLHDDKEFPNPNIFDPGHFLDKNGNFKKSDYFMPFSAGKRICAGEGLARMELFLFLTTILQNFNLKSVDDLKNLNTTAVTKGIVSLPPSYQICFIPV

## Nc1nc(-c2cccc(-n3ccc4cc(C5CC5)cc(F)c4c3=O)c2CO)c2cc(C3=CCN(C4COC4)CC3)[nH]c2n1 [MILREBRUTINIB]
Cytochrome P450 2C8
  IC50: 3.17 µM
Cytochrome P450 2C9
  IC50: 5.38 µM
[1]
  IC50: 8.54 µM
[2]
  half-life: 2.25 h
[3]
  half-life: 3.56 h
[4]
  half-life: 1.9 h
[5]
  half-life: 1.12 h
[6]
  half-life: 2.65 h
[7]
  half-life: 1.29 h
[8]
  Tmax: 2 h
[9]
  Tmax: 2 h
[10]
  Tmax: 0.833 h
[11]
  C0: 972 ng/mL
[12]
  C0: 1717 ng/mL
[13]
  C0: 874 ng/mL
[14]
  C0: 418 ng/mL
[15]
  C0: 1280 ng/mL
[16]
  C0: 896 ng/mL
[17]
  AUC(0-t): 1750 ng·h/mL
[18]
  AUC(0-t): 8060 ng·h/mL
[19]
  AUC(0-t): 1650 ng·h/mL
[20]
  AUC(0-t): 1870 ng·h/mL
[21]
  AUC(0-t): 734 ng·h/mL
[22]
  AUC(0-t): 2490 ng·h/mL
[23]
  Vd: 1.61 L/kg
[24]
  Vd: 3.64 L/kg
[25]
  Vd: 1.77 L/kg
[26]
  clearance: 18.8 mL/min/kg
[27]
  clearance: 20.3 mL/min/kg
[28]
  clearance: 22.7 mL/min/kg
[29]
  bioavailability: 60.8%
[30]
  bioavailability: 15.9%
[31]
  bioavailability: 68.1%
OCI-Ly10 [32]
  inhibition in vivo at 6 mg/kg: 74.5%
OCI-Ly10 [33]
  inhibition in vivo at 20 mg/kg: 81.6%
OCI-Ly10 [34]
  inhibition in vivo at 60 mg/kg: 112%
OCI-Ly10 [35]
  inhibition in vivo at 60 mg/kg: 73%
Mus musculus
  Activity: Non-Toxic
[36]
  inhibition: Active
[37]
  inhibition: Active
[38]
  inhibition: Active
